{"source": "patent US7504231B2", "about": "“Method of alleviating chronic pain via peripheral inhibition of neurotransmitter synthesis” (The Board of Regents of the University of Oklahoma, priority 2001, dated 2009)", "key": {"[1]": {"system": "CFA induced inflammation of the rat hindpaw (mechanical allodynia)", "assay": "Pressure sensitivity with von Frey hairs (paw pressure withdrawal threshold) in rats with CFA hindpaw inflammation", "format": "in vivo", "conditions": "for Paw pressure withdrawal thresholds (PPWT): CFA+saline 5-12 g, control 50-70 g", "description": "(§1) For the experiments described in FIGS. 1-16, adult Sprague Dawley male rats, 200-300 g, were used. One set of normal rats was used to evaluate the effects of fixation on glutaminase immunohistochemical staining and for determining antisera dilutions. For all other rats, at day 0, a limited arthritis was induced in the right hindpaw by the intraplantar subcutaneous injection of 75-150 μl of complete Freund's adjuvant (CFA; Mycobacterium butyricum; Sigma) emulsified in saline (1:1). Controls were naive rats that received no injection or rats that received intraplantar injection of saline (75 μl). For peripheral glutaminase inhibition studies, the inflamed hindpaws were injected with glutaminase inhibitors (25 μl) at day 3 of inflammation. Some rats with inflammation received saline injections (25 μl) into the inflamed hindpaw at day 3. […] Efforts were made to minimize the number of animals used for this study.\nTwo to three days prior to and for the days following CFA injection, rats were tested for pressure sensitivity with von Frey hairs (Semmes-Weinstein monofilaments; Stoelting, Inc.). […] Monofilaments calibrated for specific forces were inserted through the holes underneath the box to probe the plantar surface of the hindpaw, 5 times in 3-4 sec intervals in different places on the plantar surface. Filaments with light force were used first, followed by filaments of increasing force. A filament was slowly applied perpendicularly to the plantar surface until bending of the filament occurred. […] The threshold force was defined as the filament (force) that caused the foot retraction without bending the monofilament three out of five times. Using a conversion table for the filaments, thresholds were reported as gram force."}, "[2]": {"system": "CFA induced inflammation of the rat hindpaw (mechanical allodynia)", "assay": "Pressure sensitivity with von Frey hairs (paw pressure withdrawal threshold) in rats with CFA hindpaw inflammation", "format": "in vivo", "conditions": "for pressure responses after intrathecal inhibitor: injected intrathecally prior to initiation of CFA inflammation, tested 4 days, before ~70 gms, CFA ~10 gms"}, "[3]": {"system": "CFA induced inflammation of the rat hindpaw (thermal hyperalgesia)", "assay": "Thermal latencies (Hargreaves' model) in rats with CFA hindpaw inflammation", "format": "in vivo", "description": "as §1\nThermal latencies for the footpad plantar surface were determined with the Hargreaves' model (Ugo Basile, Italy). Rats were placed on an elevated glass plate (3 mm) in clear plastic boxes with air holes in the lids and allowed to acclimate for 10 minutes. Radiant heat was applied to the plantar surface of the hindpaw and the withdrawal latency recorded. A second test was followed after 5-10 minutes. All behavioral testing occurred at 21-22° C. with indirect lighting in the testing room. Differences between groups for pressure thresholds and thermal latencies were determined with a Student's t test (p<0.05 for significance) using InStat biological statistics program (GraphPad Software, Inc., San Diego)."}, "[4]": {"system": "hindpaw of normal rats", "assay": "DON controls: pressure and thermal sensitivities after intraplantar injection in normal rats", "format": "in vivo, rat", "conditions": "DON 10 μMole/25 μl injected on day 3, no inflammation", "description": "FIG. 10 illustrates DON controls.\nTwo to three days prior to and for the days following CFA injection, rats were tested for pressure sensitivity with von Frey hairs (Semmes-Weinstein monofilaments; Stoelting, Inc.). Rats were allowed to acclimate for five to ten minutes in a plastic box (25×25×25 cm) with 6 mm holes spaced every 6 mm [Pitcher et al, 1999a,b]. Monofilaments calibrated for specific forces were inserted through the holes underneath the box to probe the plantar surface of the hindpaw, 5 times in 3-4 sec intervals in different places on the plantar surface. Filaments with light force were used first, followed by filaments of increasing force. A filament was slowly applied perpendicularly to the plantar surface until bending of the filament occurred. […] The threshold force was defined as the filament (force) that caused the foot retraction without bending the monofilament three out of five times. […]\nThermal latencies for the footpad plantar surface were determined with the Hargreaves' model (Ugo Basile, Italy). […] Radiant heat was applied to the plantar surface of the hindpaw and the withdrawal latency recorded. […] Differences between groups for pressure thresholds and thermal latencies were determined with a Student's t test (p<0.05 for significance) using InStat biological statistics program (GraphPad Software, Inc., San Diego)."}, "[5]": {"system": "GT-IR fibers in the paw skin", "assay": "Glutaminase immunohistochemistry of hindpaw skin after CFA inflammation", "format": "in vivo, rat", "conditions": "CFA + inhibitor, skin after 7 days; control very little, CFA+saline many intense fibers", "description": "(§2) The skin from the hindpaws were also processed for GLU and GT immunohistochemistry after 7 days (FIG. 12). Control rats had very little GLU or GT-immunoreactive (IR) fibers in the paw skin. Skin from CFA+saline rats contained many intense GLU-IR and GT-IR fibers.\n(§3) For immunohistochemical localization of GT, rats at 3, 7, and 10 days (n=6 CFA/time pt; n=4 control/time pt; n=3 additional controls) were anesthetized with sodium pentobarbital (90 mg/kg) and transcardially perfused with fixative: 0.2% paraformaldehyde (PFA), […] (PA) in 0.1M phosphate buffer, pH 7.4 [Miller et al, 1993, 2002]. Right and left L4DRG's and hindpaws were removed and placed overnight in fixative at 4° C.; the PFA concentration was increased to 2% for post-fixation [Miller et al, 1993, 2002]. Additional control rats (n=3) were perfused transcardially with 4% PFA in 0.1M Sorenson's phosphate buffer, pH 7.4. DRG's were removed and placed in fixative overnight at 4° C. All tissues were transferred to 20% sucrose in 0.1M Sorenson's phosphate buffer, pH 7.4 for 24-96 hr. at 4° C. The tissue was frozen, sectioned at 20 μm in a cryostat, thaw mounted onto gelatin coated slides, and dried for 1 hr. at 37° C. […]"}, "[6]": {"system": "GLU-IR fibers in the paw skin", "assay": "Glutamate immunohistochemistry of hindpaw skin after CFA inflammation", "format": "in vivo, rat", "conditions": "CFA + inhibitor, skin after 7 days; control very little, CFA+saline many intense fibers", "description": "as §2, §3"}, "[7]": {"conditions": "BB 200 μM/25 μl at day three following CFA inflammation"}, "[8]": {"conditions": "NEM 10 mM/25 μl at day three following CFA inflammation"}, "[9]": {"conditions": "P-CoA 2 mM/25 μl at day three following CFA inflammation"}}, "note": "“Also recorded” adds a separate entry of the source.", "data": [{"smiles": "[N-]=[N+]=CC(=O)CC[C@H](N)C(=O)O", "note": "[DON, 6-diazo-5-oxo-L-norleucine]", "values": [{"measurement": "Paw pressure withdrawal thresholds (PPWT)", "setting": "[1]; CFA+DON rats, 25 μl into right paw after 2-3 days, from 6 hours through the duration of the experiment", "result": "20 to 30", "unit": "g"}, {"measurement": "dose response for pain relief from pressure, area under the curve Day 3 to Day 5", "setting": "[1]; DON 0.1-10 μMole/25 μl", "result": "No differences in the amount of pain relief"}, {"measurement": "long term pain relief to pressure (mechanical stimulation)", "setting": "[1]; DON 0.1-10 μMole/25 μl, three doses, at day three following CFA inflammation", "result": "pain relief occurred for several days"}, {"measurement": "pressure responses after intrathecal inhibitor", "setting": "[2]", "result": "near normal pressure responses for several days"}, {"measurement": "dose response for pain relief from thermal stimulation, area under the curve Day 3 to Day 5", "setting": "[3]; DON 0.1-10 μMole/25 μl", "result": "most efficacious at the higher doses"}, {"measurement": "long term pain relief to heat (thermal stimulation)", "setting": "[3]; DON 0.1-10 μMole/25 μl, all three doses, at day 3 after CFA inflammation", "result": "pain relief occurred for several days"}, {"measurement": "pain relief to heat (thermal responses)", "setting": "[3]; DON 0.1 and 1 μMole at day 3 after CFA inflammation", "result": "pain relief to near normal levels for at least one day"}, {"measurement": "pain relief to heat (thermal responses)", "setting": "[3]; DON 10 μMole at day 3 after CFA inflammation", "result": "bringing thermal responses back to normal for two days"}, {"measurement": "pressure sensitivity in normal rats", "setting": "[4]", "result": "same as saline controls"}, {"measurement": "thermal sensitivity in normal rats", "setting": "[4]", "result": "same as saline controls"}, {"measurement": "GT-IR fibers in hindpaw skin", "setting": "[5]", "result": "moderate numbers"}, {"measurement": "GLU-IR fibers in hindpaw skin", "setting": "[6]", "result": "reduced to near normal levels; also recorded: moderate numbers"}]}, {"smiles": "O=c1oc2ccccc2c(O)c1Cc1c(O)c2ccccc2oc1=O", "note": "[DC, dicoumarol]", "values": [{"measurement": "pressure responses (allodynia) as inflammation progressed", "setting": "[2]; dicoumarol 15 μl @ 500 μM i.t. on days 0, 1 and 2, CFA at Day 0, data not shown", "result": "less hyperalgesic and allodynic"}, {"measurement": "Thermal latencies (hyperalgesia) as inflammation progressed", "setting": "[3]; dicoumarol 15 μl @ 500 μM i.t. on days 0, 1 and 2, CFA at Day 0", "result": "less hyperalgesic"}]}, {"smiles": "Cc1c(C2(c3cc(C(C)C)c(O)c(Br)c3C)OS(=O)(=O)c3ccccc32)cc(C(C)C)c(O)c1Br", "note": "[BB, bromothymol blue]", "values": [{"measurement": "long term pain relief to pressure (mechanical stimulation)", "setting": "[1]; [7]", "result": "pain relief on Day 5"}, {"measurement": "long term pain relief to heat (thermal stimulation)", "setting": "[3]; [7]", "result": "pain relief from Days 5-7 and at near normal levels from Days 6 and 7"}]}, {"smiles": "CCN1C(=O)C=CC1=O", "note": "[NEM, N-ethylmaleimide]", "values": [{"measurement": "Paw pressure withdrawal thresholds (PPWT)", "setting": "[1]; CFA+NEM rats, after 48 hours", "result": "20 to 25", "unit": "g"}, {"measurement": "long term pain relief to pressure (mechanical stimulation)", "setting": "[1]; [8]", "result": "pain relief occurred for several days"}, {"measurement": "long term pain relief to heat (thermal stimulation)", "setting": "[3]; [8]", "result": "pain relief occurred to near normal levels at days four and six"}, {"measurement": "GT-IR fibers in hindpaw skin", "setting": "[5]", "result": "moderate numbers"}, {"measurement": "GLU-IR fibers in hindpaw skin", "setting": "[6]", "result": "reduced to near normal levels; also recorded: moderate numbers"}]}, {"smiles": "O=C(O)CF", "note": "[FA, fluoroacetate]", "values": [{"measurement": "pressure responses after intrathecal inhibitor", "setting": "[2]", "result": "near normal pressure responses for several days"}]}, {"smiles": "CCCCCCCCCCCCCCCC(=O)SCCNC(=O)CCNC(=O)[C@H](O)C(C)(C)COP(=O)(O)OP(=O)(O)OC[C@H]1O[C@@H](n2cnc3c(N)ncnc32)[C@H](O)[C@@H]1OP(=O)(O)O", "note": "[P-CoA, Palmitoyl Coenzyme A]", "values": [{"measurement": "long term pain relief to pressure (mechanical stimulation)", "setting": "[1]; [9]", "result": "pain relief from Days 4-7"}, {"measurement": "long term pain relief to heat (thermal stimulation)", "setting": "[3]; [9]", "result": "pain relief to near normal levels from Days 4-7"}]}, {"smiles": "CS(=N)(=O)CC[C@H](N)C(=O)O", "note": "(stereo partly drawn) [MSO, methionine sulfoximine]", "values": [{"measurement": "pressure responses", "setting": "[1]; MSO injected into inflamed hindpaw at Day 3, one-time, over several days, before inflammation ~70 gms, after ~10 gms", "result": "~50", "unit": "gms"}, {"measurement": "pressure responses after intrathecal inhibitor", "setting": "[2]", "result": "near normal pressure responses for several days"}, {"measurement": "Thermal responses", "setting": "[3]; MSO injected into inflamed hindpaw at Day 3, one-time, before inflammation ~9 sec, after ~3 sec", "result": "near normal levels by day 6 through day 9"}]}]}
